According to patent US20140288117A1, “USE OF CYSTEAMINE IN TREATING PARKINSON'S DISEASE” (Omega Bio-Pharma (I.P. 2) Ltd, priority 2010, published 2014):

Tests used:
[1] = test system: TH-immunoresponsive (TH-IR) neurons in the substantia nigra of MPTP-treated mice; assay: Tyrosine hydroxylase immunohistochemistry: number of TH-IR neurons in substantia nigra; format: in vivo; details: mean±SD
Experimental: (§1) C57/BL mice weighted 20-22 g were used. […] The control group was injected with 0.9% saline.
Twenty-four hours later the last injection, mice were anesthetized with chloral hydrate (100 mg/kg). The mice were subjected to thoracotomy and perfusion with ice-cold 0.9% sodium chloride 50 ml, then with 4% paraformaldehyde (PFA) 100 ml in 0.01 M PBS through the left ventricular. After fixation, the brain was post-fixed and then cryoprotected in 30% sucrose for 24 h. The brains were sectioned through the substantia nigra (SN) coronally at 30 um thickness on a cryostat (Leica CM1900, Nussloch, Germany). Sections were collected in 0.01 M PBS and processed free floating. The free floating sections were washed 3 times in Tris-buffered saline (TBS), incubated with H2O2 (3%) for 30 min and blocked with 5% normal goat serum (NGS), 0.2% Triton X-100 in TBS. Sections were incubated for 24 h with primary rabbit anti-TH monoclonal antibody (1:10000) (Watanabe et al., “Protective effects of M, Matsubara, Imai Y, Araki T. neuronal nitric oxide synthase inhibitor in mouse brain against MPTP neurotoxicity: an immunohistological study,” Eur Neuropsychopharmacol. 14:93-104 (2004)). Sections were washed in PBS and incubated for 2 hr at room temperature in secondary antibodies: biotinylated goat anti-rabbit (1:500) diluted in blocking buffer. The sections were incubated for 2 hr at room temperature in horseradish peroxidase labeled avidin work […] solution (1:500). TH immunoreactivity was visualized in SN after incubation in DAB and Nickel sulfate salt for 5-10 min. Sections were mounted on slides, dried, dehydrated in graded ethanol, cleared in xylene, and mounted with DPX mounting medium and coverslip. To test the specificity of the immunostaining, control sections were processed in an identical manner but with the primary antibody omitted. After TH-staining, the image of the sections from the substantia nigra were digitalized with NIS-Elements imaging software (Nikon). The number of neurons was measured in the bilateral substantia nigra.

[2] = test system: striatal dopamine (DA) concentration; assay: Assay of striatal dopamine (DA) by HPLC; format: in vivo, mice; details: mean±SD
Experimental: as §1
Samples were processed blindly to the treatment conditions for HPLC analysis with electrochemical detector (ECD) using the method by Beyer (Bayer, et al., 2002). Bilaterally corpus striatum tissues were sonicated in 1 ml of pre-colded 0.4 N HClO4. The resulting homogenates were centrifuged twice for 12 min at 12000×g at 4° C. Mobile phase consisting of 0.035 mol/L anhydrous citric acid, 0.09 mol/L without Water-sodium acetate, 0.23 mmol/L sodium alkane sulfonate, 0.13 mmol/L EDTA, 10% methanol (pH4.7). Electrochemical conditions for the experiment were +0.50V. Separation was carried out at a flow rate of 1.0 ml/min. Samples (20 μl) were automatic injected and were quantified by comparison of the area under the curve (AUC) against reference standards. The concentrations of DA were expressed as ng/mg protein of the brain tissue. Protein content was determined in tissue supernatants by the method of Lowry using bovine serum albumin as a standard (Lowry et al., “Protein measurement with the Folin phenol reagent,” J Biol Chem. 193:265-275 (1951)).

[3] = test system: glutathione (GSH) levels in the SNpc; assay: Total glutathione (GSH) level in SNpc using glutathione reductase; format: in vivo, mice; details: mean±SD
Experimental: as §1
(§2) The formation of thiobarbituric acid reactive species (TBARS) during an acid-heating reaction was determined by the absorbance at 532 nm. The rate of lipid peroxidation was expressed as nmol/mg protein. SOD activity was detected based on its ability to inhibit the superoxide anion free radical of O^2− generated by the xanthine/xanthine oxidase system. The absorbance at 550 nm was monitored and SOD levels were expressed as U/mg protein. The total glutathione (reduced and oxidized form of glutathione) was determined using glutathione reductase. Absorbance was measured at 412 nm using microplate reader. The standard curve was obtained from absorbance of the diluted commercial GSH that was incubated in the mixture as in samples. Results were reported as nmol TNB/mg protein.

[4] = test system: brain-derived neurotrophic factor (BDNF); assay: BDNF concentration in substantia nigra by ABC-ELISA; details: for BDNF concentration in substantia nigra: mean±SD
Experimental: C57/BL mice weighted 20-22 g were used. Mice were treated with cysteamine and/or induced by MPTP fresh preparations according to the group assignments. Group assignments (n=8/group) were as follows: (1) saline (control) group, (2) MPTP alone (see below), (3) cysteamine (CS) 20 mg/kg/d alone for two weeks, (4) CS 75 mg/kg/d alone for two weeks, (5) CS 20 mg/kg/d for total 14 days and MPTP was given from day 5 to 9, (6) CS 75 mg/kg/d for total 14 days and MPTP was given from day 5 to 9, (7) simultaneous administration of MPTP and CS 20 mg/kg/d for 5 days followed by CS for additional 9 days, (8) simultaneous administration of MPTP and CS 75 mg/kg/d for 5 days followed by CS for additional 9 days. The control group was injected with 0.9% saline. MPTP (20 mg/kg) was intraperitoneally (i.p.) injected into the mice twice daily at an interval of 12 hrs for the initial 2 days and once per day on day 3-5 (Tremblay et al., “Neuroprotective effects of cystamine in aged parkinsonian mice,” Neurobiol Aging. 27:862-870 (2006)). CS (20 mg/kg/d and 75 mg/kg/day were injected alone for 14 days.
After treatment for 14 days, the animals were sacrificed by decapitation. Tissues were quickly removed from the brain on a Petri dish placed on ice using laboratory microscope (Chan et al., “Development of a high resolution three-dimensional surgical atlas of the murine head for strains 129S1/SvImJ and C57Bl/6J using magnetic resonance imaging and micro-computed tomography,” Neuroscience. 144:604-615 (2007)). Bilateral corpus striatum stored at −80° C. until used for HPLC analysis. Bilateral substantia nigra were immediately homogenized using an Ultrasonic Cell Disruptor (Biologics, Model 150 V/T), and which were centrifuged. The supernatant was used for the estimation of various enzyme activities.
The concentration of BDNF was measured by an ABC-ELISA method, according to the manufacturer's protocol (Beyotime Institute of Biotechnology). […] OD value and BDNF concentration are proportional to the standard curve obtained the standard BDNF concentrations. Data are represented as pg/mg protein.

malondialdehyde (MDA) = assay: Malondialdehyde (MDA) / TBARS lipid peroxidation in substantia nigra; format: in vivo, mice; details: n = 8
Experimental: as §1, §2

[5] = test system: reactive oxygen species (ROS); assay: ROS level in substantia nigra cells by DCDHF-DA fluorescence; format: in vivo, mice; details: n = 8
Experimental: as §1
The ROS level was measured using 2′,7′-dichlorodihydrofluorescein diacetate (DCDHF-DA). DCDHF-DA which is cell-permeable and non-fluorescent, and, in the presence of ROS it is oxidized inside cells and transformed into a fluorescent compound, 2′,7′-dichlorofluorescein (DCDF), which remains trapped within the cell. To measure the ROS level in substantia nigra, isolated cells (10^5/ml) were incubated with 50 μM DCDHF-DA for 40 min at 37° C. and washed twice in PBS. The fluorescence was monitored in microplate reader (Liu, et al., 2009). For each sample, 10,000 cells were acquired. Data were expressed as an average of fluorescence intensity of analyzed cell population (mean fluorescence intensity±SD).

[6] = test system: superoxide dismutase (SOD); assay: SOD activity in substantia nigra (xanthine/xanthine oxidase system); format: in vivo, mice; details: n = 8
Experimental: as §1, §2

[7] = C20 mg alone (cysteamine 20 mg/kg/d, no MPTP)
[8] = C75 mg alone (cysteamine 75 mg/kg/d, no MPTP)

CN1CC=C(c2ccccc2)CC1.Cl [MPTP, 1-methyl-4-phenyl-1,2,3,6-tetrahydropyridine hydrochloride]
number of TH-IR nigral neurons ([1]; MPTP alone (20 mg/kg i.p., 5 days), control 295.65±47.47): 166.65±58.15 | striatal DA concentration ([2]; MPTP alone, control 57.62±12.70): 26.38±6.47 ng/mg protein | level of GSH in the SNpc ([3]; MPTP alone, control 3.52±1.44): 0.55±0.36 nmol TNB/mg protein | BDNF concentration in substantia nigra ([4]; MPTP alone, control 78.34±16.09): 39.55±7.82 pg/mg protein | MDA (malondialdehyde (MDA); MPTP alone, substantia nigra, control 7.89 ± 0.65): 10.84 ± 2.65 nmol/mg | ROS ([5]; MPTP alone, substantia nigra, control 13010 ± 261): 20207 ± 203 MFI | SOD ([6]; MPTP alone, substantia nigra, control 52.55 ± 13.35): 57.73 ± 9.57 U/mg

NCCS [cysteamine]
number of TH-IR nigral neurons ([1]; cysteamine 20 mg/kg/d 4 days prior to and along with MPTP (CS20 mg/kg/d+MPTP)): 262.45±32.75 | number of TH-IR nigral neurons ([1]; cysteamine 75 mg/kg/d alone, no MPTP): 271.05±44.93 | number of TH-IR nigral neurons ([1]; cysteamine 75 mg/kg/d pretreatment + MPTP (CS75 mg/kg/d+MPTP)): 172.10±42.69 | number of TH-IR nigral neurons ([1]; simultaneous treatment MPTP+CS20 mg/kg/d): 179.5±68.11 | number of TH-IR nigral neurons ([1]; simultaneous treatment MPTP+CS75 mg/kg/d): 174.05±45.78 | striatal DA concentration ([2]; cysteamine 20 mg/kg/d 4 days before and along with MPTP): 47.96±10.57 ng/mg protein | striatal DA concentration ([2]; cysteamine 75 mg/kg/d pretreatment + MPTP): 25.65±7.71 ng/mg protein | striatal DA concentration ([2]; cysteamine 75 mg/kg/day alone, no MPTP): 32.22±4.71 ng/mg protein | striatal DA concentration ([2]; simultaneous treatment cysteamine 20 mg/kg/d during MPTP): 36.27±16.42 ng/mg protein | striatal DA concentration ([2]; simultaneous treatment cysteamine 75 mg/kg/day during MPTP): 25.08±8.10 ng/mg protein | level of GSH in the SNpc ([3]; pretreatment with low dose cysteamine (20 mg/kg/d) + MPTP): 3.16±1.28 nmol TNB/mg protein | BDNF concentration in substantia nigra ([4]; high dose cysteamine (75 mg/kg/d) + MPTP): 55.43±12.15 pg/mg protein | BDNF concentration in substantia nigra ([4]; low dose cysteamine (20 mg/kg/d) + MPTP): 74.22±7.79 pg/mg protein | BDNF concentration in substantia nigra ([4]; low dose cysteamine (20 mg/kg/d) alone, no MPTP): 103.36±30.48 pg/mg protein | reversal of MPTP-induced decrease of BDNF ([4]; simultaneous administration of cysteamine (20 or 75 mg/kg/d) with MPTP, both P>0.05): did not reverse the decrease of BDNF by MPTP | MDA (malondialdehyde (MDA); C20 mg + MPTP (pretreatment)): 8.25 ± 0.90 nmol/mg | MDA (malondialdehyde (MDA); [7]): 8.82 ± 2.44 nmol/mg | MDA (malondialdehyde (MDA); C75 mg + MPTP (pretreatment)): 8.56 ± 1.08 nmol/mg | MDA (malondialdehyde (MDA); [8]): 8.90 ± 2.14 nmol/mg | MDA (malondialdehyde (MDA); MPTP + C20 mg (simultaneous)): 9.86 ± 0.91 nmol/mg | MDA (malondialdehyde (MDA); MPTP + C75 mg (simultaneous)): 9.51 ± 0.57 nmol/mg | ROS ([5]; C20 mg + MPTP (pretreatment)): 17411 ± 589 MFI | ROS [5, 7]: 17460 ± 779 MFI | ROS ([5]; C75 mg + MPTP (pretreatment)): 17411 ± 362 MFI | ROS [5, 8]: 17980 ± 419 MFI | ROS ([5]; MPTP + C20 mg (simultaneous)): 19539 ± 431 MFI | ROS ([5]; MPTP + C75 mg (simultaneous)): 21976 ± 489 MFI | SOD ([6]; C20 mg + MPTP (pretreatment)): 62.11 ± 4.74 U/mg | SOD [6, 7]: 58.88 ± 17.66 U/mg | SOD ([6]; C75 mg + MPTP (pretreatment)): 58.53 ± 5.82 U/mg | SOD [6, 8]: 59.13 ± 10.66 U/mg | SOD ([6]; MPTP + C20 mg (simultaneous)): 66.77 ± 4.64 U/mg | SOD ([6]; MPTP + C75 mg (simultaneous)): 59.58 ± 2.24 U/mg
